Several values for one entry are separate records, joined by “and”; a condition that tells them apart may be missing. Equal entries are not always repeated. One block for each compound: values may come before it.
Columns and labels:
[1] = tested on: T1, UGT enzymes of human liver microsomes; experiment: Inhibition of 2ME2 glucuronidation (MG1, MG2) in human liver microsomes; assay type: biochemical; conditions: liver 062101, 2ME2 50 μM
T1 construct: other: liver 062101
From the text: (§1) Compounds were eluted using a binary solvent gradient system where solvent A was dilute phosphoric acid (pH 3) and solvent B was 80:20 acetonitrile-methanol. […] Detection was at 280 nm.

[2] = molecular target: T2, UGT enzymes of human liver microsomes (Homo sapiens, UniProt P16662); experiment: Inhibition of zidovudine glucuronidation in human liver microsomes; assay type: biochemical; conditions: liver lot 062101
T2 construct: residual metabolism (percentage of control), zidovudine glucuronidation; other: liver lot 062101; residual metabolism (percentage of control), zidovudine glucuronidation; residual metabolism (percentage of control)
T2 sequence (P16662 1-529): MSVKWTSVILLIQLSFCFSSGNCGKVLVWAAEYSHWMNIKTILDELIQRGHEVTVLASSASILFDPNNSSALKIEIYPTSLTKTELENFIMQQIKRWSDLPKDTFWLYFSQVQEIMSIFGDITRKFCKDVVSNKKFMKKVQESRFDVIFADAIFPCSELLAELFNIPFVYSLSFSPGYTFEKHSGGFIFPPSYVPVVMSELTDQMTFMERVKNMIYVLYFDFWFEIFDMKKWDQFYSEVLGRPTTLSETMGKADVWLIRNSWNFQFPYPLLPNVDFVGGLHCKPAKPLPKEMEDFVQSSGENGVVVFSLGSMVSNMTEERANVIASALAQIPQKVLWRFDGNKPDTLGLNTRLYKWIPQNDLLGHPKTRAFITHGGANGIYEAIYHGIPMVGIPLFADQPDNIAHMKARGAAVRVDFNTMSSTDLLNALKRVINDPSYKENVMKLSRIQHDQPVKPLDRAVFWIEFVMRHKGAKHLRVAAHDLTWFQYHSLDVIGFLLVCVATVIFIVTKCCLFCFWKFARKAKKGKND
Experimental: Compounds were eluted using a binary solvent gradient system where solvent A was dilute phosphoric acid (pH 3) and solvent B was acetonitrile.
Standardized incubations utilized 500 μM zidovudine substrate, 1 mg/ml microsomal protein, 5 mM UDPGA and a 30 min incubation time. […] Int.

UGT1A1 = molecular target: T3, UGT1A1 (Homo sapiens, UniProt P22309); experiment: Inhibition of raloxifene glucuronidation by recombinant UGT1A1 Supersomes; conditions: for Inhibition of raloxifene glucuronidation, G1, UGT1A1 / Inhibition of raloxifene glucuronidation, G2, UGT1A1: raloxifene 50 μM, 250 μg/ml Supersomes, 1 mM UDPGA, 15 min; for % of control metabolism, raloxifene G1 / % of control metabolism, raloxifene G2: UGT1A1
T3 sequence (P22309 26-533): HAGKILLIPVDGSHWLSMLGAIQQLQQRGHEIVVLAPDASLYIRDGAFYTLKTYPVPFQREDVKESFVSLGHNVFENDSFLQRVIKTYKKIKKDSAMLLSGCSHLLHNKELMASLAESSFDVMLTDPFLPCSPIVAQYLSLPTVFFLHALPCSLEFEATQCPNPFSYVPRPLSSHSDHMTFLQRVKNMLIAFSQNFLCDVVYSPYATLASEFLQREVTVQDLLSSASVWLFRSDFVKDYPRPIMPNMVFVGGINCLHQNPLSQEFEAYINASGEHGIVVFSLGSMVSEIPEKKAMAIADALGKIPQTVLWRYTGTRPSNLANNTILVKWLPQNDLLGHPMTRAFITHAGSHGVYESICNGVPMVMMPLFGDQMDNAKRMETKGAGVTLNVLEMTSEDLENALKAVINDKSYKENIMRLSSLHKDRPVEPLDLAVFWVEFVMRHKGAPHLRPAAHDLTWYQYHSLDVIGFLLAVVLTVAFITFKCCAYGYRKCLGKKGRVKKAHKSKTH
Experimental: Compounds were eluted using a binary solvent gradient system. Solvent A was water brought to pH 8 with NH4OH. Solvent B was methanol. Solvent flow rate was 1 ml/min and the column temperature was maintained at 50° C. Detection was at 280 nm. […] The system was then returned to the initial conditions and equilibrated for 3 min.

[3] = tested on: UGT enzymes of human liver microsomes; experiment: Inhibition of raloxifene glucuronidation (G1, G2) in human liver microsomes; assay type: biochemical; conditions: raloxifene 50 μM; for % of control metabolism (SD, n = 3), raloxifene glucuronide G1 / % of control metabolism (SD, n = 3), raloxifene glucuronide G2: human liver microsomes 250 μg/ml, 15 min
From the text: Compounds were eluted using a binary solvent gradient system. […] Solvent B was methanol. […] Detection was at 280 nm.

[4] = tested on: UGT enzymes of pooled human jejunum microsomes; experiment: Inhibition of zidovudine glucuronidation in pooled human jejunum microsomes; assay type: biochemical
Experimental: Increasing the microsomal protein concentration to 1 mg/ml and extending the incubation time to 60 min provided meaningful metabolite levels for inhibition studies.

[5] = tested on: UGT enzymes of pooled human jejunum microsomes; experiment: Inhibition of 2ME2 glucuronidation (MG1) in pooled human jejunum microsomes; assay type: biochemical; conditions: jejunum HJ61, 2ME2 50 μM
From the text: as §1

[6] = tested on: T4, UGT enzymes of human liver microsomes; experiment: Inhibition of 7-HFC glucuronidation in human liver microsomes; assay type: biochemical; conditions: inhibitor 500 μM
T4 construct: percentage of control metabolism, 7-HFC glucuronidation; percentage of control metabolism, 7-HFC glucuronidation

[7] = inhibitor column headed only "μM" (between 25 μM and 5 μM)

SMILES: C#C[C@]1(O)CC[C@H]2[C@@H]3CCc4cc(O)ccc4[C@H]3CC[C@@]21C [17-α-Ethinylestradiol, 17-α-ethinylestradiol, reference compound]
residual metabolism (% of control), 2ME2 MG1 ([1]; inhibitor 25 μM): 74 (1) % | residual metabolism (% of control), 2ME2 MG2 ([1]; inhibitor 25 μM): 62 (1) % | residual metabolism (% of control), 2ME2 MG1 ([1]; inhibitor 50 μM): 64 (2) % | residual metabolism (% of control), 2ME2 MG2 ([1]; inhibitor 50 μM): 41 (3) % | residual metabolism (% of control), 2ME2 MG1 ([1]; inhibitor 100 μM): 48 (0) % | residual metabolism (% of control), 2ME2 MG2 ([1]; inhibitor 100 μM): 4 (0) % | residual metabolism (percentage of control), zidovudine glucuronidation ([2]; inhibitor 50 μM): 54 (2) % | residual metabolism (percentage of control), zidovudine glucuronidation ([2]; inhibitor 100 μM): 40 (2) % | residual metabolism (percentage of control), zidovudine glucuronidation ([2]; inhibitor 200 μM): 24 (1) % | residual metabolism (percentage of control), zidovudine glucuronidation ([2]; inhibitor 500 μM): 13 (1) % and 10 (1) % | Inhibition of raloxifene glucuronidation, G1, UGT1A1 (UGT1A1; inhibitor 25 μM): 53 (0) | Inhibition of raloxifene glucuronidation, G1, UGT1A1 (UGT1A1; inhibitor 50 μM): 33 (1) | Inhibition of raloxifene glucuronidation, G1, UGT1A1 (UGT1A1; [7]): 81 (0) | Inhibition of raloxifene glucuronidation, G2, UGT1A1 (UGT1A1; inhibitor 25 μM): 72 (1) | Inhibition of raloxifene glucuronidation, G2, UGT1A1 (UGT1A1; inhibitor 50 μM): 58 (3) | Inhibition of raloxifene glucuronidation, G2, UGT1A1 (UGT1A1; [7]): 91 (1) | % of control metabolism, raloxifene G1 (UGT1A1; inhibitor 25 μM): 53 (0) % | % of control metabolism, raloxifene G2 (UGT1A1; inhibitor 25 μM): 72 (1) % | % of control metabolism, raloxifene G1 (UGT1A1; inhibitor 50 μM): 33 (1) % | % of control metabolism, raloxifene G2 (UGT1A1; inhibitor 50 μM): 58 (3) % | % of control metabolism (SD, n = 3), raloxifene glucuronide G1 ([3]; inhibitor 25 μM): 66 (3) % | % of control metabolism (SD, n = 3), raloxifene glucuronide G1 ([3]; inhibitor 50 μM): 42 (2) % | % of control metabolism (SD, n = 3), raloxifene glucuronide G1 ([3]; inhibitor 100 μM): 31 (2) % | % of control metabolism (SD, n = 3), raloxifene glucuronide G1 ([3]; inhibitor 500 μM): 2 (0) % | % of control metabolism (SD, n = 3), raloxifene glucuronide G2 ([3]; inhibitor 25 μM): 80 (3) % | % of control metabolism (SD, n = 3), raloxifene glucuronide G2 ([3]; inhibitor 50 μM): 60 (2) % | % of control metabolism (SD, n = 3), raloxifene glucuronide G2 ([3]; inhibitor 100 μM): 56 (3) % | % of control metabolism (SD, n = 3), raloxifene glucuronide G2 ([3]; inhibitor 500 μM): 6 (0) % | % of control metabolism, raloxifene G1 ([3]; inhibitor 25 μM): 66 (3) % | % of control metabolism, raloxifene G2 ([3]; inhibitor 25 μM): 80 (3) % | % of control metabolism, raloxifene G1 ([3]; inhibitor 50 μM): 42 (2) % | % of control metabolism, raloxifene G2 ([3]; inhibitor 50 μM): 60 (2) % | % of control metabolism, raloxifene G1 ([3]; inhibitor 100 μM): 31 (2) % | % of control metabolism, raloxifene G2 ([3]; inhibitor 100 μM): 56 (3) % | residual metabolism (percentage of control), zidovudine ([4]; inhibitor 100 μM): 30 (1) % | residual metabolism (% of control), 2ME2 MG1 ([5]; inhibitor 50 μM): 109 (5) % | residual metabolism (% of control), 2ME2 MG1 ([5]; inhibitor 100 μM): 99 (2) % | percentage of control metabolism, 7-HFC glucuronidation [6]: 72 (1) % | % of control metabolism (SD, n = 3), 7-HFC glucuronidation ([6]; 7-HFC 50 μM, human liver microsomes 100 μg/ml, 15 min): 72 (1) %

residual metabolism (% of control), 2ME2 MG1 ([1]; inhibitor 50 μM): 96 (2) % | residual metabolism (% of control), 2ME2 MG2 ([1]; inhibitor 50 μM): 86 (1) % | residual metabolism (% of control), 2ME2 MG1 ([1]; inhibitor 100 μM): 92 (2) % | residual metabolism (% of control), 2ME2 MG2 ([1]; inhibitor 100 μM): 74 (3) % | residual metabolism (percentage of control), zidovudine glucuronidation ([2]; inhibitor 200 μM): 63 (6) % | residual metabolism (percentage of control), zidovudine glucuronidation ([2]; inhibitor 500 μM): 43 (1) % and 37 (4) % | residual metabolism (percentage of control), zidovudine glucuronidation ([2]; inhibitor 1000 μM): 25 (2) % | residual metabolism (percentage of control), zidovudine ([4]; inhibitor 500 μM): 32 (3) % | residual metabolism (% of control), 2ME2 MG1 ([5]; inhibitor 50 μM): 98 (4) % | residual metabolism (% of control), 2ME2 MG1 ([5]; inhibitor 100 μM): 125 (7) %
SMILES: CC1CCC(C(C)C)C(O)C1 (stereo not shown) [Menthol]

From patent US20030215462A1, “Use of UGT inhibitors to increase bioavailability” (priority 2001, published 2003)
